Results as given in PubChem BioAssay (NCI).
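The compound was tested at five concentrations on cells cultured in 96-well plates, with a 48-hour exposure period. GI50: concentration for 50% inhibition of growth. TGI is the concentration that stops growth completely.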

Experiments:
Experiment in all cases: NCI anticancer screen, dose series, 48 h
ACHN renal = test system: ACHN renal
SR leukemia = test system: SR leukemia
SK-OV-3 ovarian = test system: SK-OV-3 ovarian
MDA-MB-231 breast = test system: MDA-MB-231 breast
NCI-H460 lung = test system: NCI-H460 lung
NCI-H522 lung = test system: NCI-H522 lung
NCI-H226 lung = test system: NCI-H226 lung
OVCAR-4 ovarian = test system: OVCAR-4 ovarian
OVCAR-8 ovarian = test system: OVCAR-8 ovarian
HL-60(TB) leukemia = test system: HL-60(TB) leukemia
SNB-19 CNS = test system: SNB-19 CNS
HOP-62 NSCLC = test system: HOP-62 NSCLC
UACC-62 melanoma = test system: UACC-62 melanoma
K-562 leukemia = test system: K-562 leukemia
LOX IMVI melanoma = test system: LOX IMVI melanoma
RPMI-8226 leukemia = test system: RPMI-8226 leukemia
KM12 colon = test system: KM12 colon
HCT-15 colon = test system: HCT-15 colon
HS 578T breast = test system: HS 578T breast
T-47D breast = test system: T-47D breast
SNB-75 CNS = test system: SNB-75 CNS
HCT-116 colon = test system: HCT-116 colon
CCRF-CEM leukemia = test system: CCRF-CEM leukemia
MDA-MB-468 breast = test system: MDA-MB-468 breast
SN12C renal = test system: SN12C renal
OVCAR-3 ovarian = test system: OVCAR-3 ovarian
UO-31 renal = test system: UO-31 renal
A549 NSCLC = test system: A549 NSCLC
M14 melanoma = test system: M14 melanoma
MCF7 breast = test system: MCF7 breast
NCI/ADR-RES ovarian = test system: NCI/ADR-RES ovarian
SF-268 CNS = test system: SF-268 CNS
SK-MEL-2 melanoma = test system: SK-MEL-2 melanoma
IGROV1 ovarian = test system: IGROV1 ovarian
MALME-3M melanoma = test system: MALME-3M melanoma
SK-MEL-28 melanoma = test system: SK-MEL-28 melanoma
PC-3 prostate = test system: PC-3 prostate
NCI-H23 lung = test system: NCI-H23 lung
A498 renal = test system: A498 renal
OVCAR-5 ovarian = test system: OVCAR-5 ovarian
HT29 colon = test system: HT29 colon
HCC-2998 colon = test system: HCC-2998 colon
DU-145 prostate = test system: DU-145 prostate
HOP-92 NSCLC = test system: HOP-92 NSCLC
MOLT-4 leukemia = test system: MOLT-4 leukemia
CAKI-1 renal = test system: CAKI-1 renal
UACC-257 melanoma = test system: UACC-257 melanoma
EKVX NSCLC = test system: EKVX NSCLC
SK-MEL-5 melanoma = test system: SK-MEL-5 melanoma
RXF 393 renal = test system: RXF 393 renal
SF-539 CNS = test system: SF-539 CNS
TK-10 renal = test system: TK-10 renal
BT-549 breast = test system: BT-549 breast
786-0 renal = test system: 786-0 renal
SW-620 colon = test system: SW-620 colon
U251 CNS = test system: U251 CNS
SF-295 CNS = test system: SF-295 CNS
COLO 205 colon = test system: COLO 205 colon
MDA-MB-435 = test system: MDA-MB-435

COP(=O)(CC(F)(F)C(F)(F)F)OC
GI50 (ACHN renal): 2.12 µM | TGI (ACHN renal): 4.52 µM | GI50 (SR leukemia): 3.15 µM | TGI (SR leukemia): 12.2 µM | GI50 (SK-OV-3 ovarian): 30.1 µM | TGI (SK-OV-3 ovarian): 76.1 µM | GI50 (MDA-MB-231 breast): 8.95 µM | TGI (MDA-MB-231 breast): 22.9 µM | GI50 (NCI-H460 lung): 18 µM | TGI (NCI-H460 lung): 38.1 µM | GI50 (NCI-H522 lung): 1.48 µM | TGI (NCI-H522 lung): 3.02 µM | GI50 (NCI-H226 lung): 23.2 µM | TGI (NCI-H226 lung): 73.1 µM | GI50 (OVCAR-4 ovarian): 14 µM | TGI (OVCAR-4 ovarian): 30 µM | GI50 (OVCAR-8 ovarian): 17.2 µM | TGI (OVCAR-8 ovarian): 84.2 µM | GI50 (HL-60(TB) leukemia): 2.15 µM | TGI (HL-60(TB) leukemia): 5.33 µM | GI50 (SNB-19 CNS): 24.8 µM | TGI (SNB-19 CNS): 77 µM | GI50 (HOP-62 NSCLC): 22.7 µM | TGI (HOP-62 NSCLC): 52.7 µM | GI50 (UACC-62 melanoma): 4.95 µM | TGI (UACC-62 melanoma): 18 µM | GI50 (K-562 leukemia): 2.93 µM | TGI (K-562 leukemia): 14.3 µM | GI50 (LOX IMVI melanoma): 1.7 µM | TGI (LOX IMVI melanoma): 3.54 µM | GI50 (RPMI-8226 leukemia): 3.07 µM | TGI (RPMI-8226 leukemia): 8.49 µM | GI50 (KM12 colon): 19.4 µM | TGI (KM12 colon): 40.1 µM | GI50 (HCT-15 colon): 1.76 µM | TGI (HCT-15 colon): 4.93 µM | GI50 (HS 578T breast): 15.1 µM | TGI (HS 578T breast): 79.4 µM | GI50 (T-47D breast): 2.36 µM | TGI (T-47D breast): 7.99 µM | GI50 (SNB-75 CNS): 4.93 µM | TGI (SNB-75 CNS): 55.3 µM | GI50 (HCT-116 colon): 2.21 µM | TGI (HCT-116 colon): 5.99 µM | GI50 (CCRF-CEM leukemia): 2.43 µM | TGI (CCRF-CEM leukemia): 8.68 µM | GI50 (MDA-MB-468 breast): 1.35 µM | TGI (MDA-MB-468 breast): 3.16 µM | GI50 (SN12C renal): 18.5 µM | TGI (SN12C renal): 37.5 µM | GI50 (OVCAR-3 ovarian): 3.44 µM | TGI (OVCAR-3 ovarian): 12.1 µM | GI50 (UO-31 renal): 1.71 µM | TGI (UO-31 renal): 3.64 µM | GI50 (A549 NSCLC): 22.1 µM | TGI (A549 NSCLC): 53.1 µM | GI50 (M14 melanoma): 1.8 µM | TGI (M14 melanoma): 3.77 µM | GI50 (MCF7 breast): 2.05 µM | TGI (MCF7 breast): 10.5 µM | GI50 (NCI/ADR-RES ovarian): 2.83 µM | TGI (NCI/ADR-RES ovarian): 10.2 µM | GI50 (SF-268 CNS): 24.2 µM | TGI (SF-268 CNS): 64.2 µM | GI50 (SK-MEL-2 melanoma): 16.3 µM | TGI (SK-MEL-2 melanoma): 38.4 µM | GI50 (IGROV1 ovarian): 19.9 µM | TGI (IGROV1 ovarian): 42.5 µM | GI50 (MALME-3M melanoma): 2.32 µM | TGI (MALME-3M melanoma): 5.62 µM | GI50 (SK-MEL-28 melanoma): 1.87 µM | TGI (SK-MEL-28 melanoma): 3.89 µM | GI50 (PC-3 prostate): 7.87 µM | TGI (PC-3 prostate): 25.2 µM | GI50 (NCI-H23 lung): 7.36 µM | TGI (NCI-H23 lung): 21.4 µM | GI50 (A498 renal): 22.1 µM | TGI (A498 renal): 41.1 µM | GI50 (OVCAR-5 ovarian): 17.5 µM | TGI (OVCAR-5 ovarian): 32.2 µM | GI50 (HT29 colon): 2.46 µM | TGI (HT29 colon): 5.17 µM | GI50 (HCC-2998 colon): 13.6 µM | TGI (HCC-2998 colon): 27 µM | GI50 (DU-145 prostate): 10.5 µM | TGI (DU-145 prostate): 24.5 µM | GI50 (HOP-92 NSCLC): 3.89 µM | TGI (HOP-92 NSCLC): 13.1 µM | GI50 (MOLT-4 leukemia): 3.06 µM | TGI (MOLT-4 leukemia): 10.8 µM | GI50 (CAKI-1 renal): 2.6 µM | TGI (CAKI-1 renal): 6.49 µM | GI50 (UACC-257 melanoma): 1.94 µM | TGI (UACC-257 melanoma): 5.83 µM | GI50 (EKVX NSCLC): 2.71 µM | TGI (EKVX NSCLC): 8.33 µM | GI50 (SK-MEL-5 melanoma): 5.98 µM | TGI (SK-MEL-5 melanoma): 19.2 µM | GI50 (RXF 393 renal): 1.33 µM | TGI (RXF 393 renal): 2.92 µM | GI50 (SF-539 CNS): 2.55 µM | TGI (SF-539 CNS): 7.21 µM | GI50 (TK-10 renal): 3.08 µM | TGI (TK-10 renal): 7.36 µM | GI50 (BT-549 breast): 6.26 µM | TGI (BT-549 breast): 20.4 µM | GI50 (786-0 renal): 6.27 µM | TGI (786-0 renal): 20.4 µM | GI50 (SW-620 colon): 2.04 µM | TGI (SW-620 colon): 4.2 µM | GI50 (U251 CNS): 17.6 µM | TGI (U251 CNS): 38 µM | GI50 (SF-295 CNS): 16.5 µM | TGI (SF-295 CNS): 31.8 µM | GI50 (COLO 205 colon): 1.99 µM | TGI (COLO 205 colon): 3.62 µM | GI50 (MDA-MB-435): 6.7 µM | TGI (MDA-MB-435): 22.4 µM
